Patent publication US9012182B2, “Method for producing purine nucleosides and nucleotides by fermentation using bacterium belonging to the genus Bacillus or Escherichia” (Ajinomoto Co., Inc., priority 2004, dated 2015)

What was measured:
Type in all cases: cell-based
[1] = test system: E. coli strain TG1 (pMW118); assay: Growth on M9 glucose minimal agar with purine base analogues, vector control strain; settings: 44 h at 37° C. Further: key: +: good growth; −: no growth.
Method: (§1) The pYDHL1 plasmid and the vector were used to transform the E. coli strain TG1 (Amersham Pharmacia Biotech) via standard techniques. Transformants were selected on L-broth agar plates with 100 μg/ml ampicillin. Thus, the E. coli strains TG1 (pYDHL1) and TG1 (pMW118) were obtained. Then the ability of these strains to grow in the presence of purine base analogues was determined on M9 glucose minimal agar plates containing graded concentrations of an inhibitor. The plates were spotted with 10^5 to 10^6 cells from an overnight culture grown in a minimal medium (supplemented with 100 μg/ml of ampicillin). The growth was estimated after 44 h incubation at 37° C.

[2] = test system: E. coli strain TG1 (pYDHL1); assay: Growth on M9 glucose minimal agar with purine base analogues, ydhL-amplified strain; settings: 44 h at 37° C. Further: key: +: good growth; −: no growth.
Method: as §1

B. subtilis 168 = assay: Growth on M9 glucose minimal agar with purine analogues, control strain; settings: 48 h at 34° C.
Method: (§2) The pYDHL3, pYDHL4 plasmids and the pMWMX1 vector were used to transform wild-type B. subtilis strain 168 via standard techniques. Transformants were selected on L-broth agar plates with 10 μg/ml erythromycin. Thus, the strains B. subtilis 168(pMWMX1), B. subtilis 168(pYDHL3) and B. subtilis 168(pYDHL4) were obtained. Then, the ability of these strains to grow in the presence of purine base analogues was determined on M9 glucose minimal agar plates (minimal medium M9, glucose-2%, vitamin assay casamino acids (Difco)—0.1%, tryptophan—100 μg/ml) containing graded concentrations of a purine analogue. The plates were spotted with 10^5 to 10^6 cells from an overnight culture grown on the above agar plates without the analogues. The growth was estimated after 48 h incubation at 34° C.

B. subtilis 168(pYDHL4) = assay: Growth on M9 glucose minimal agar with purine analogues, ydhLBa-amplified strain; settings: 48 h at 34° C. Further: key: +: good growth; −: no growth.
Method: as §2

B. subtilis 168(pYDHL3) = assay: Growth on M9 glucose minimal agar with purine analogues, ydhLBs-amplified strain; settings: 48 h at 34° C. Further: key: +: good growth; −: no growth.
Method: as §2

[3] = test system: E. coli deoD gsk3 (pMW118); assay: Growth on minimal medium with inosine or guanosine, vector control strain; further: key: +: good growth; −: no growth
Method: as §1
(§3) The pYDHL1 plasmid and the pMW118 vector were also transformed into the E. coli strain TG1 deoD gsk3. The E. coli strain TG1 deoD gsk3 was an especially constructed parental strain which is used for checking the resistance to inosine and guanosine. This strain was obtained by sequential introduction of a deoD mutation, as described in PCT application WO9903988 and gsk3 mutation described by Petersen C. (J. Biol. Chem., 274, 5348-5356, 1999) using phage P1-mediated transduction into the known strain TG1 (VKPM B-5837), which is resistant to inosine and guanosine due to its ability to degrade purine. The strain TG1 deoD gsk3 cannot degrade guanosine and inosine due to a deoD mutation (WO9903988), and it is sensitive to nucleosides due to a gsk3 mutation (Petersen C. J. Biol. Chem., 274, 5348-5356, 1999). Thus, the strains TG1 deoD gsk3 (pYDHL1) and TG1 deoD gsk3 (pMW118) were obtained. Then the ability of these strains to grow in the presence of inosine and guanosine was determined as above.

[4] = test system: E. coli deoD gsk3 (pYDHL1); assay: Growth on minimal medium with inosine or guanosine, ydhL-amplified strain; settings: for Resistance conferred by ydhL gene overexpression: summary in words of Table 2, pYDHL1 versus pMW118; on Growth on the minimal medium containing Guanosine 10 mg/l: key: +: good growth; −: no growth; on Growth on the minimal medium containing Guanosine 15 mg/l: key: +: good growth; −: no growth; on Growth on the minimal medium containing Inosine 1000 mg/l: key: +: good growth; −: no growth; on Growth on the minimal medium containing Inosine 300 mg/l: key: +: good growth; −: no growth
Method: as §1, §3

Nc1ncnc2nn[nH]c12 [AzaA, 8-azaadenine]
Growth on the minimal medium containing AzaA, 300 μg/ml ([1]; AzaA 300 μg/ml): − | Growth on the minimal medium containing AzaA, 300 μg/ml ([2]; AzaA 300 μg/ml): + | Growth on the minimal medium containing AzaA, 2 mg/ml (B. subtilis 168; AzaA 2 mg/ml): − | Growth on the minimal medium containing AzaA, 2 mg/ml (B. subtilis 168(pYDHL4); AzaA 2 mg/ml): +

Cc1ncnc2nc[nH]c12 [MePur, 6-methylpurine]
Growth on the minimal medium containing MePur, 20 μg/ml (B. subtilis 168; MePur 20 μg/ml): − | Growth on the minimal medium containing MePur, 20 μg/ml (B. subtilis 168(pYDHL3); MePur 20 μg/ml): + | Growth on the minimal medium containing MePur, 20 μg/ml (B. subtilis 168(pYDHL4); MePur 20 μg/ml): +

OC[C@H]1O[C@@H](n2cnc3c(O)ncnc32)[C@H](O)[C@@H]1O [Inosine]
Growth on the minimal medium containing Inosine 300 mg/l ([3]; inosine 300 mg/l): − | Growth on the minimal medium containing Inosine 1000 mg/l ([3]; inosine 1000 mg/l): − | Growth on the minimal medium containing Inosine 300 mg/l ([4]; inosine 300 mg/l, E. coli deoD gsk3 (pYDHL1)): + | Growth on the minimal medium containing Inosine 1000 mg/l ([4]; inosine 1000 mg/l, E. coli deoD gsk3 (pYDHL1)): + | Resistance conferred by ydhL gene overexpression [4]: high-level resistance

Sc1ncnc2nc[nH]c12 [MP, 6-mercaptopurine]
Growth on the minimal medium containing MP, 400 μg/ml ([1]; MP 400 μg/ml): − | Growth on the minimal medium containing MP, 400 μg/ml ([2]; MP 400 μg/ml): +

Nc1nc(N)c2[nH]cnc2n1 [DAP, 2,6-diaminopurine]
Growth on the minimal medium containing DAP, 400 μg/ml ([1]; DAP 400 μg/ml): − | Growth on the minimal medium containing DAP, 400 μg/ml ([2]; DAP 400 μg/ml): +

Nc1nc2nn[nH]c2c(=O)[nH]1 [AzaG, 8-azaguanine]
Growth on the minimal medium containing AzaG, 2 μg/ml (B. subtilis 168; AzaG 2 μg/ml): − | Growth on the minimal medium containing AzaG, 10 μg/ml (B. subtilis 168; AzaG 10 μg/ml): − | Growth on the minimal medium containing AzaG, 2 μg/ml (B. subtilis 168(pYDHL3); AzaG 2 μg/ml): + | Growth on the minimal medium containing AzaG, 2 μg/ml (B. subtilis 168(pYDHL4); AzaG 2 μg/ml): + | Growth on the minimal medium containing AzaG, 10 μg/ml (B. subtilis 168(pYDHL4); AzaG 10 μg/ml): +

Nc1nc2c(ncn2[C@@H]2O[C@H](CO)[C@@H](O)[C@H]2O)c(=O)[nH]1 [Guanosine]
Growth on the minimal medium containing Guanosine 10 mg/l ([3]; guanosine 10 mg/l): − | Growth on the minimal medium containing Guanosine 15 mg/l ([3]; guanosine 15 mg/l): − | Growth on the minimal medium containing Guanosine 10 mg/l ([4]; guanosine 10 mg/l, E. coli deoD gsk3 (pYDHL1)): + | Growth on the minimal medium containing Guanosine 15 mg/l ([4]; guanosine 15 mg/l, E. coli deoD gsk3 (pYDHL1)): − | Resistance conferred by ydhL gene overexpression [4]: low-level resistance
